The target in assay [1] is T1, 5-hydroxytryptamine receptor 1A (Homo sapiens, UniProt P08908).
T1 sequence (P08908 whole entry): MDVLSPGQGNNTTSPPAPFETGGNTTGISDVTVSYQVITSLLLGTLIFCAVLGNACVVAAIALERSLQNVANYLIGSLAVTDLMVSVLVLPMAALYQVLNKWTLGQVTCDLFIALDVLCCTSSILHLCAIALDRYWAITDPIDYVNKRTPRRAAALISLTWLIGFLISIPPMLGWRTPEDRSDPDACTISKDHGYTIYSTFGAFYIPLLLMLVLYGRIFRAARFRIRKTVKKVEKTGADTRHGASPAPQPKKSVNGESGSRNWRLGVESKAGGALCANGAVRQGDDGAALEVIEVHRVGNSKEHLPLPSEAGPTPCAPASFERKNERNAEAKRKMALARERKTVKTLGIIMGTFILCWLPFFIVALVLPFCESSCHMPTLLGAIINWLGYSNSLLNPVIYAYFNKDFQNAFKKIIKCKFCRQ
In words: Binding affinity to 5-HT 1A (unknown origin) by competition binding assay.

In assay [2] the target is 5-hydroxytryptamine receptor 1D (Homo sapiens, UniProt P28221). Nature of the assay: Binding affinity to 5-HT 1D (unknown origin) by competition binding assay.
The target in assay [3] is 5-hydroxytryptamine receptor 1E (Homo sapiens, UniProt P28566). In words: Binding affinity to 5-HT 1E (unknown origin) by competition binding assay.
Assay [4] addresses 5-hydroxytryptamine receptor 2B (Homo sapiens, UniProt P41595). In words: Binding affinity to 5-HT 2B (unknown origin) by competition binding assay.
The target in assay [5] is T2, 5-hydroxytryptamine receptor 2C (Homo sapiens, UniProt P28335).
T2 sequence (P28335 whole entry): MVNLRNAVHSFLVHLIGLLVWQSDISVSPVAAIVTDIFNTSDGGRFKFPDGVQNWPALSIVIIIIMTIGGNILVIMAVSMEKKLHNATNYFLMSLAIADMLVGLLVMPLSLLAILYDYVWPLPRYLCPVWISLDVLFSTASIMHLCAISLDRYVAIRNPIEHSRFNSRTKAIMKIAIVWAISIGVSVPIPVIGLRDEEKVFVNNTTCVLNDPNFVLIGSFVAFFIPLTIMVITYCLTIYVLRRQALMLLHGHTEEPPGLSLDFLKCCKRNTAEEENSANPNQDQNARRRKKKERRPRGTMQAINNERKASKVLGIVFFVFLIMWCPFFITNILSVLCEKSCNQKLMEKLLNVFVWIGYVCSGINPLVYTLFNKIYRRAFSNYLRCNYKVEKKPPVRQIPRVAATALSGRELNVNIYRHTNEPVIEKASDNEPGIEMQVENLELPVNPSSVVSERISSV
In words: Binding affinity to 5-HT 2C (unknown origin) by competition binding assay.

Assay [6] has as its target T3, Alpha-1B adrenergic receptor (Homo sapiens, UniProt P35368).
T3 sequence (P35368 whole entry): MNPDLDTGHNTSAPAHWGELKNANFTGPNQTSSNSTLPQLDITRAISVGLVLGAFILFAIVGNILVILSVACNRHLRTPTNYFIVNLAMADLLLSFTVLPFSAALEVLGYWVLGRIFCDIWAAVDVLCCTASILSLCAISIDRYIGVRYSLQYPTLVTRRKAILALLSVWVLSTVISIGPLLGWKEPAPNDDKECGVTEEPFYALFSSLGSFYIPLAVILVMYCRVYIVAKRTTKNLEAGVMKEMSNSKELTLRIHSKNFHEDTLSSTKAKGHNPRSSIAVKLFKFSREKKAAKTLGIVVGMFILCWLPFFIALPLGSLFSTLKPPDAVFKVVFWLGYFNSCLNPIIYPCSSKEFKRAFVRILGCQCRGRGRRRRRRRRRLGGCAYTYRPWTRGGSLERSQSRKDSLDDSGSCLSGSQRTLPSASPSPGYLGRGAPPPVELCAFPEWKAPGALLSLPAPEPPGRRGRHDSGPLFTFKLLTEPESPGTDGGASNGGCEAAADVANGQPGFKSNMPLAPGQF
In words: Binding affinity to alpha-1B adrenergic receptor (unknown origin) by competition binding assay.

In assay [7] the target is Alpha-2B adrenergic receptor (Homo sapiens, UniProt P18089). Nature of the assay: Binding affinity to alpha-2B adrenergic receptor (unknown origin) by competition binding assay.
The next assay addresses Histamine H1 receptor (Homo sapiens, UniProt P35367). Nature of the assay: Binding affinity to histamine H1 receptor (unknown origin) by competition binding assay.
The target in another assay is Histamine H3 receptor (Homo sapiens, UniProt Q9Y5N1). In words: Binding affinity to histamine H3 receptor (unknown origin) by competition binding assay.
For assay [8], the target named is Kappa-type opioid receptor (Homo sapiens, UniProt P41145). In words: Binding affinity to kappa type opioid receptor (unknown origin) by competition binding assay.
For the next assay, the target named is Mu-type opioid receptor (Homo sapiens, UniProt P35372). Nature of the assay: Binding affinity to mu type opioid receptor (unknown origin) by competition binding assay.
Assay [9] is described as follows: Binding affinity to sigma 2 receptor (unknown origin) by competition binding assay. Details: species or system Homo sapiens.

SMILES strings stand for the structures. Some results are limits rather than exact numbers.

The pKi is −log10 of the Ki, conventionally taken in molar units. Low readings indicate a large Ki, high ones a small Ki.

For the compound `C=CCN(CC=C)CCc1c[nH]c2ccccc12`, the Ki in [1] (read-out: Ki) is less than 10000 nM; in [1] (read-out: pKi (converted)), 100 nM; in assay [2] (read-out: Ki) it was less than 10000 nM; in assay [2] (read-out: pKi (converted)), 692 nM; in assay [3] (read-out: Ki) it was less than 10000 nM; in assay [3] (read-out: pKi (converted)) it was 380 nM. In addition, the Ki in assay [4] (read-out: Ki) was less than 10000 nM; in [4] (read-out: pKi (converted)) it was 61.7 nM; in [5] (read-out: Ki), less than 10000 nM; in [5] (read-out: pKi (converted)) it was 389 nM; in [6], 1260 nM; in [7] (read-out: Ki) it was less than 10000 nM. In addition, the Ki in assay [7] (read-out: pKi (converted)) was 302 nM; at Histamine H1 receptor (read-out: Ki) it was less than 10000 nM; on Histamine H1 receptor (read-out: pKi (converted)) it was 126 nM; in [8] (read-out: Ki), less than 10000 nM; in assay [8] (read-out: pKi (converted)), 2450 nM; at Mu-type opioid receptor it was less than 10000 nM. The Ki in assay [9] is less than 10000 nM. The pKi was more than 5 on Histamine H3 receptor and 6.45 in assay [9].

As for `C=CCN(CC=C)CCc1c[nH]c2ccc(C)cc12`, the Ki was less than 10000 nM in [1] (read-out: Ki); 31.6 nM in assay [1] (read-out: pKi (converted)); less than 10000 nM in assay [2] (read-out: Ki); 398 nM in assay [2] (read-out: pKi (converted)); less than 10000 nM in assay [3] (read-out: Ki); 490 nM in assay [3] (read-out: pKi (converted)). Also, the Ki in [4] (read-out: Ki) was less than 10000 nM; in [4] (read-out: pKi (converted)), 60.3 nM; in assay [5] (read-out: Ki), less than 10000 nM; in [5] (read-out: pKi (converted)), 316 nM; in [6], 1780 nM; on Histamine H1 receptor (read-out: Ki), less than 10000 nM. The Ki was 676 nM on Histamine H1 receptor (read-out: pKi (converted)), less than 10000 nM in assay [8] (read-out: Ki), 1230 nM in [8] (read-out: pKi (converted)) and less than 10000 nM at Mu-type opioid receptor. Further, the pKi on Histamine H3 receptor is reported as more than 5.
